In series [1] the test system is Influenza A virus. Nature of the series: Antiviral activity against amantadine/rimantadine-resistant Influenza A virus (A/Puerto Rico/8/34(H1N1)) infected in MDCK cells assessed as inhibition of viral replication after 48 hrs by hemagglutination test. Format: functional, organism-based. Particulars: A/Puerto Rico/8/1934(H1N1).
Series [2] can be described thus: Selectivity index, ratio of CC50 for MDCK cells to IC50 for amantadine/rimantadine-resistant Influenza A virus (A/Puerto Rico/8/34(H1N1)). Format: toxicity. Particulars: dog, read-out: Ratio CC50/IC50.
Series [3] relates to Influenza A virus. Nature of the series: Antiviral activity against osaltamivir-resistant Influenza A virus (A/Vladivostok/02/09(H1N1)) infected in MDCK cells assessed as inhibition of viral replication after 48 hrs by hemagglutination test. Format: functional, organism-based.
Series [4] has as its system Influenza A virus. Briefly: Antiviral activity against amantadine/rimantadine-resistant Influenza A virus (A/California/07/09(H1N1)) infected in MDCK cells assessed as inhibition of viral replication after 48 hrs by hemagglutination test. The class given is functional, organism-based. Particulars: A/California/07/2009(H1N1).
Series [5] is described as follows: Selectivity index, ratio of CC50 for MDCK cells to IC50 for amantadine/rimantadine-resistant Influenza A virus (A/California/07/09(H1N1)). Particulars: dog, read-out: Ratio CC50/IC50. The class given is toxicity.
The subject of series [6] is Influenza B virus. Nature of the series: Antiviral activity against amantadine/rimantadine-resistant Influenza B virus (B/Florida/4/06(Yamagata-like)) infected in MDCK cells assessed as inhibition of viral replication after 48 hrs by hemagglutination test. The class given is functional, organism-based, Influenza B virus (B/Florida/4/2006).
Series [7] in a line: Selectivity index, ratio of CC50 for MDCK cells to IC50 for osaltamivir-resistant Influenza A virus (A/Vladivostok/02/09(H1N1)). The class given is toxicity. Particulars: dog, read-out: Ratio CC50/IC50.
Series [8] can be described thus: Selectivity index, ratio of CC50 for MDCK cells to IC50 for amantadine/rimantadine-resistant Influenza B virus (B/Florida/4/06/Yamagata-like). Format: toxicity. The following applies: dog, read-out: Ratio CC50/IC50.

Structures are written as SMILES. Where only a bound is given, the exact number is not on record here.

For the molecule `C[C@@H]1CC[C@@H]2[C@@H](C1)O[C@@H](C1CCCCC1)C[C@@]2(C)O`, the IC50 (commonly the concentration that inhibits the measured activity by half) in series [1] came to 12.4 µM. In addition, in series [2], the selectivity ratio came out at 2.
Regarding `C[C@@H]1CC[C@@H]2[C@@H](C1)OC(C)(C)C[C@@]2(C)O`, the IC50 in series [3] was greater than 1420 µM; in series [4], 0.9 µM; in series [1] it was 7.5 µM; in series [6], 17 µM. For the same molecule, the selectivity ratio stood at 1570 in series [5], 1 in series [7] and 83 in series [8].
With `CC(N)C12CC3CC(CC(C3)C1)C2` (centres undefined) [RIMANTADINE], the IC50 in series [1] came to 72 µM. The selectivity ratio in series [2] was 4.
For `C[C@@H]1CC[C@@H]2[C@H](C1)OC1(CCCCCC1)C[C@@]2(C)O`, in that order: 82.7 µM and 3.
`C[C@@H]1CC[C@@H]2[C@H](C1)OC1(CCCCC1)C[C@@]2(C)O`: the IC50 in series [1] turned out to be 18.3 µM. The selectivity ratio in series [2] turned out to be 34.
Consider `CCCC1(CCC)C[C@@](C)(O)[C@@H]2CC[C@@H](C)C[C@@H]2O1`, for which the concentration for half-maximal inhibition (IC50) in series [1] turned out to be 45.5 µM. Also, the selectivity ratio in series [2] is 3.
With `NC(=O)c1ncn([C@@H]2O[C@H](CO)[C@@H](O)[C@H]2O)n1` [RIBAVIRIN], in series [1], the IC50 is 44 µM.
`C[C@@H]1CC[C@@H]2[C@H](C1)OC(C)(C)CC2(C)O` (some centres undefined): the IC50 in series [1] came out at 17 µM. Besides, in series [2], the selectivity ratio was 4.
For `C[C@@H]1CC[C@@H]2[C@H](C1)OC1(CCCCCCC1)C[C@@]2(C)O`, in series [1], the IC50 is greater than 118 µM.
For `CC(C)=O` [ACETONE], the IC50 in series [1] amounted to 7.5 µM.
As for `C[C@@H]1CC[C@@H]2[C@@H](C1)OC(C)(C)C[C@]2(C)O`, in series [1], the half-maximal inhibitory concentration (IC50) turned out to be 70.8 µM. Moreover, in series [2], the selectivity ratio was 12.
Consider `C[C@@H]1CC[C@@H]2[C@H](C1)OC1(CCCC1)C[C@@]2(C)O`, for which the half-maximal inhibitory concentration (IC50) in series [1] was 8.4 µM. The selectivity ratio in series [2] amounted to 96.
As to `CCC1(CC)C[C@@](C)(O)[C@@H]2CC[C@@H](C)C[C@@H]2O1`, the half-maximal inhibitory concentration (IC50) in series [1] was 19.6 µM. Besides, the selectivity ratio in series [2] came out at 10.
Turning to `CCC[C@H]1C[C@@](C)(O)[C@@H]2CC[C@@H](C)C[C@H]2O1`, the concentration for half-maximal inhibition (IC50) in series [1] is greater than 1330 µM.

For the origin of these results see ChEMBL document CHEMBL4118151, “Highly potent activity of isopulegol-derived substituted octahydro-2H-chromen-4-ols against influenza A and B viruses” (Bioorg Med Chem Lett, 2018).
